Experimental data: patent US4086416A, “Septacidin analogs” (Stanford Research Institute, priority 1977, dated 1978)
“Also recorded” adds a separate entry of the source. Like-named read-outs stand apart in the source and are kept apart here. Each block holds one molecule with its values, some of them ahead of it.

Columns and labels:
[1] = tested on: cultured lymphoid leukemia L1210 cells; assay: inhibition of DNA synthesis in cultured L1210 leukemia cells; format: cell-based
Description: (§1) The septacidin analogs 2 and 3 (corresponding to the compounds of Examples I and II, respectively) were tested first in cultured lymphoid leukemia L1210 cells for inhibition of nucleic acid syntheses and for cytotoxicity,by previously reported procedures. A sample of natural septacidin (compound 1) was obtained from the National Cancer Institute and included for comparison. Data on adriamycin (compound 4) are also included. The analogs were then tested, along with 1 and 4, against lymphocytic leukemia P388 implanted in mice, under the auspices of the NCI and according to its protocols which use the increased survival time of treated animals compared to controls as the measure of antitumor efficacy.
(§2) ^b Assay described in G. Tong, W. W. Lee, D. R. Black and D. W. Henry

[2] = tested on: cultured lymphoid leukemia L1210 cells; assay: cytotoxicity vs cultured L1210 leukemia cells; format: cell-based; conditions: for IC50: cultured L1210 leukemia cells, read-out: Cytotoxicity I50
Description: as §1, §2

[3] = tested on: lymphocytic leukemia P388 implanted in mice; assay: antitumor efficacy vs P388 leukemia in mice (increased survival time); format: in vivo; conditions: for antitumor activity in mouse tests: NCI criteria, doses of 0.5-1.0 mg/kg; for Optimum Antitumor Efficacy, T/C / Optimum Antitumor Dose: P388 leukemia in mice; for Optimum Antitumor Efficacy, T/C: at optimum dose (septacidin 0.50, compounds 2 and 3 1.0 mg/kg), compounds 2 and 3 average from two tests; for Optimum Antitumor Dose: dose producing the highest T/C
Description: as §1
^c Assay described in R. I. Geran, N. H. Greenberg, M. M. MacDonald,
A. M. Schumacker and B. J. Abbott, Cancer Chemother. Rep., Part 3, 3 (No.
2), 9 (1972). Protocol 1.200. Other doses were higher or lower by a facto
of 2. Each compound has 2-4 active doses. Compounds were of borderline
solubility, and some doses were injection as suspensions. Water, water +
Tween 80, or saline + Tween 80 (emul. agent, ICI) were used as vehicles.
By definition, a compound is active if T/C […] 125. For compounds 2
and 3 the T/C is the average from two tests. Optimum dose is the one
producing the highest T/C.

[4] = tested on: cultured lymphoid leukemia L1210 cells; assay: inhibition of RNA synthesis in cultured L1210 leukemia cells; format: cell-based
Description: as §1, §2

[5] = solubility; format: physicochemical
[6] = tested on: cultured lymphoid leukemia L1210 cells; assay: in vitro activity in cultured L1210 cells (inhibition of nucleic acid syntheses); format: cell-based
Description: as §1, §2

[7] = tested on: isolated helical DNA; assay: binding to isolated helical DNA in solution (effect on helix-coil transition temperature)
Text: The in vivo efficacy of adriamycin is much higher, but there are other differences.
as §2
by the modified procedure.

[8] = antitumor activity (test not specified)
[9] = tested on: cultured lymphoid leukemia L1210 cells; conditions: data from Tong et al. 1976, read-out: Inhibition of Synthesis of RNA, ED50; cited from earlier work
[10] = tested on: isolated helical DNA; conditions: cited from earlier work
[11] = tested on: cultured lymphoid leukemia L1210 cells; conditions: cited from earlier work
[12] = tested on: lymphocytic leukemia P388 implanted in mice; conditions: cited from earlier work
[13] = tested on: cultured lymphoid leukemia L1210 cells; conditions: data from Tong et al. 1976, read-out: Inhibition of Synthesis of DNA, ED50; cited from earlier work
[14] = Mus musculus, cultured L1210 leukemia cells, read-out: Inhibition of Synthesis of DNA, ED50
[15] = in vitro, compared with septacidin (1)
[16] = Mus musculus, cultured L1210 leukemia cells, read-out: Inhibition of Synthesis of RNA, ED50

IC50 ([1]; cultured L1210 cells, corrected for 75% purity, assuming inactive impurities, read-out: Inhibition of Synthesis of DNA, ED50, corrected for purity): 230 nM
IC50 ([1]; cultured L1210 leukemia cells, read-out: Inhibition of Synthesis of DNA, ED50): 300 nM
IC50 ([4]; cultured L1210 cells, corrected for 75% purity, assuming inactive impurities, read-out: Inhibition of Synthesis of RNA, ED50, corrected for purity): 530 nM
IC50 ([4]; cultured L1210 leukemia cells, read-out: Inhibition of Synthesis of RNA, ED50): 700 nM
Structure (SMILES): CC(C)CCCCCCCCCCCCC(=O)NCC(=O)NC1C(O)C(O)C(Nc2ncnc3nc[nH]c23)OC1C(O)CO (stereo not drawn) [Septacidin]
IC50 [2]: > 5000 nM
Optimum Antitumor Dose, corrected for purity ([3]; P388 in mice, qd 1-9, corrected for 75% purity, assuming inactive impurities): 0.38 mg/kg
antitumor activity in mouse tests ([3]; P388 in mice): high antitumor potency
Optimum Antitumor Efficacy, T/C ([3]; qd 1-9): 154%
Optimum Antitumor Dose ([3]; qd 1-9): 0.50 mg/kg

solubility in CH3OH [5]: moderately soluble
solubility in H2O or saline [5]: slightly soluble
IC50 [1, 14]: 2600 nM
Binding to Isolated Helical DNA in Solution, ΔTm [7]: 0.6 °C
binding to isolated helical DNA in solution ([7]; ΔTm): binds only weakly
IC50 [4, 16]: 880 nM
Structure (SMILES): CC(C)CCCCCCCCCCCCC(=O)NCC(=O)NC1C(C)OC(Nc2ncnc3[nH]cnc23)C(O)C1O [Compound 2, 6-[4,6-Dideoxy-4-(isopalmitoylglycyl)amino-β-L-glucopyranosylamino]-9H-purine]
potency in the DNA test [1, 15]: not as potent
inhibition of nucleic acid synthesis [6]: potent inhibition of nucleic acid synthesis
IC50 ([2]; Mus musculus): > 20000 nM
cytotoxic effects ([2]; at soluble levels): could not be observed at soluble levels
antitumor activity [8]: enhanced antitumor activity
potency compared with adriamycin ([8]; comparison of both in vivo and in vitro data): comparable in potency
antitumor activity in mouse tests ([3]; P388 in mice): confirmed activity
Optimum Antitumor Efficacy, T/C ([3]; qd 1-9): 160%
Optimum Antitumor Dose ([3]; qd 1-9): 1.0 mg/kg
response in the RNA test [4, 15]: a response nearly the same as 1

Structure (SMILES): CCCCCC(=O)NCC(=O)NC1C(C)OC(Nc2ncnc3[nH]cnc23)C(O)C1O [Example VI, 6-[4,6-Didoexy-4-(caproylglycyl)amino-β-L-glucopyranosylamino]-9H-purine]
antitumor activity [8]: inactive; also recorded: loss of activity was total

solubility in CH3OH [5]: moderately soluble
solubility in H2O or saline [5]: slightly soluble
IC50 [1, 14]: 29000 nM
IC50 [4, 16]: 18000 nM
Structure (SMILES): CCCCCCCCCCCC(=O)NCC(=O)N[C@@H]1[C@@H](O)[C@H](O)[C@@H](Nc2ncnc3[nH]cnc23)O[C@H]1C [Compound 3, 6-[4,6-Dideoxy-4-(lauroylglycyl)amino-β-L-glucopyranosylamino]-9H-purine]
in vitro activity ([6]; compared with septacidin (1) or analog 2): noticeably less potent; also recorded: decreased activity in vitro
IC50 ([2]; Mus musculus): > 10000 nM
antitumor activity in mouse tests ([3]; P388 in mice): confirmed activity
Optimum Antitumor Efficacy, T/C ([3]; qd 1-9): 137%
Optimum Antitumor Dose ([3]; qd 1-9): 1.0 mg/kg
efficacy in vivo ([3]; fatty acid shortened from 16 to 12 carbons, compared with 2): slight loss of efficacy in vivo

Structure (SMILES): COc1cccc2c1C(=O)c1c(O)c3c(c(O)c1C2=O)C[C@@](O)(C(=O)CO)C[C@@H]3O[C@H]1C[C@H](N)[C@H](O)[C@H](C)O1 [Adriamycin]
IC50 [9]: 670 nM
Binding to Isolated Helical DNA in Solution, ΔTm ([10]; modified procedure, data from Tong et al. 1976): 13.6 °C
binding to isolated helical DNA in solution ([10]; ΔTm): binds strongly
cytotoxicity [11]: highly cytotoxic
IC50 ([11]; cultured L1210 leukemia cells, data from Tong et al. 1976, read-out: Cytotoxicity I50): 32 nM
Optimum Antitumor Efficacy, T/C ([12]; P388 leukemia in mice, at 1.0 mg/kg, qd 1-9, data from Tong et al. 1976): 193%
Optimum Antitumor Dose ([12]; P388 leukemia in mice, qd 1-9, data from Tong et al. 1976): 1.0 mg/kg
in vivo efficacy ([12]; adriamycin compared with 2): much higher
IC50 [13]: 1500 nM
